Data as given in ChEMBL document CHEMBL1127700, “Iron(III)-chelating resins. IX. Antibacterial activity of a water-insoluble iron(III)-chelating resin” (1994).

Key:
Listeria innocua = test: Tested in vitro for percent inhibition of the growth of Listeria inocua at concentration of 20 uM; format: functional
Escherichia coli = test: Tested in vitro for percent inhibition of the growth of Escherichia coli at concentration of 20 uM; format: functional

Structure (SMILES) | Growth response (Listeria innocua) [%] | Growth response (Escherichia coli) [%]
CCC(=O)NCCn1ccc(=O)c(O)c1C | 14 | 0
C=CC(=O)NCCn1ccc(=O)c(O)c1C | 13 | 0
